We go through one substance from patent US6482603B1, “Method of detecting drug-receptor and protein-protein interactions” (Yale University, priority 1998, dated 2002).

For test [1], the system named is yeast expressing the Sec-1 G protein gamma subunit fusion and syntaxin. The test can be described thus: growth inhibition assay (halo assay). The following applies: filter disks containing 5 or 15 μg of α-factor; strain MHY6; documented after 2 days at 30° C. The class given is cell-based, Saccharomyces cerevisiae. As for the experimental part:
(§1) Standard methods for the growth, maintenance, and transformation of yeast and bacteria, and for the manipulation of DNA, were used throughout (Ausubel et al. 1987, Current Protocols in Molecular Biology. Wiley-Interscience, New York). The Escherichia coli strain DH5α was used for the maintenance of plasmids. Yeast cells were grown in synthetic medium supplemented with amino acids, adenine and 2% glucose (SCD) or 2% galactose plus 0.2% sucrose (SCG); tryptophan and/or uracil were omitted to maintain selection for plasmids. The Saccharomyces cerevisiae strain used in this study was MHY6 (from Jeremy Thomer) (MATa ura3-52 lys2-801^am ade2-101^oc trp1-Δ63 his3-Δ200 leu2-Δ1 ste18Δ::LEU2) (derived from Sikorski et al. (1989) Genetics 122(1):19-27).
(§2) To evaluate to the interactions of the Sec-1 G protein gamma subunit fusion and syntaxin, a growth inhibition assay (halo assay) was carried out by diluting 50 μL from an overnight culture grown at 30° C. in selective media with 2 mL sterile water, followed by the addition of an equal volume of 1% (w/v) dissolved agar (55° C.) and poured onto a culture dish of SCD-Trp-Ura or SCG-Trp-Ura medium. Sterile filter discs were spotted with 5 μg or 15 μg of synthetic α-factor pheromone and placed onto the nascent lawn to induce growth arrest. The resulting zone of growth-arrested cells was documented after 2 days at 30° C. […]

The test system of test [2] is control cells which express the Sec-1 G protein gamma fusion alone and cells which express syntaxin alone. The test can be described thus: growth inhibition assay (halo assay), control cells. The class given is cell-based, Saccharomyces cerevisiae. The following applies: upon pheromone addition, filter disks with 5 or 15 μg, 2 days at 30° C. As for the experimental part:
as §1, §2

Regarding α-factor, the “α-factor induced growth arrest (zone of inhibition around filter paper disks)” value in test [1] is on record as “no zone of inhibition”. In test [2], the “pheromone induced growth arrest” value is “growth arrest”.
